In brackets after ≈: the same amount, converted by molar mass. Activity calls are given as the source filed them. The calls are words filed in the database; no cut-off is given here.
What was measured:
Dysdercus koenigii [1] = test: Insecticidal activity against 5th instar nymph of Dysdercus koenigii assessed as mortality per nymph; assay type: functional
Pyricularia grisea = test: Antifungal activity against Magnaporthe grisea after 48 hrs by microbroth dilution method; assay type: functional
Fusarium oxysporum = test: Antifungal activity against Fusarium oxysporum after 48 hrs by microbroth dilution method; assay type: functional
Drechslera = test: Antifungal activity against Dreschlera oryzae after 48 hrs by microbroth dilution method; assay type: functional
Debaryomyces hansenii = test: Antifungal activity against Debaryomyces hansenii after 48 hrs by microbroth dilution method; assay type: functional
[2] = Antifungal activity against Pichia membranifaciens after 48 hrs by microbroth dilution method; assay type: functional
Candida albicans [3] = test: Antifungal activity against Candida albicans NCIM 3557 after 48 hrs by microbroth dilution method; assay type: functional
Candida albicans [4] = test: Antifungal activity against Candida albicans after 48 hrs by microbroth dilution method; assay type: functional
Candida albicans [5] = test: Antifungal activity against Candida albicans NCIM 3471 after 48 hrs by microbroth dilution method; assay type: functional
Nakaseomyces glabratus = test: Antifungal activity against Candida glabrata NCIM 3237 after 48 hrs by microbroth dilution method; assay type: functional
Cryptococcus neoformans [6] = test: Antifungal activity against Cryptococcus neoformans after 48 hrs by microbroth dilution method; assay type: functional
Cryptococcus neoformans [7] = test: Antifungal activity against Cryptococcus neoformans NCIM 3541 after 48 hrs by microbroth dilution method; assay type: functional
Cryptococcus neoformans [8] = test: Antifungal activity against Cryptococcus neoformans NCIM 3542 after 48 hrs by microbroth dilution method; assay type: functional
Cryptococcus neoformans [9] = test: Antifungal activity against Cryptococcus neoformans NCIM 3378 after 48 hrs by microbroth dilution method; assay type: functional
[10] = Toxicity in RBC assessed as induction of hemolysis; assay type: cell-based, Erythrocyte; conditions: red blood cells (RBC)
[11] = Toxicity in RBC assessed as induction of hemolysis at MIC; assay type: cell-based, Erythrocyte; conditions: red blood cells (RBC); read-out: Activity
Dysdercus koenigii [12] = test: Insecticidal activity against 5th instar nymph of Dysdercus koenigii assessed as smaller body size at 20 and 50 ug/nymph; assay type: functional
Dysdercus koenigii [13] = test: Insecticidal activity against 5th instar nymph of Dysdercus koenigii assessed as crumpled wings at 20 and 50 ug/nymph; assay type: functional
Dysdercus koenigii [14] = test: Insecticidal activity against 5th instar nymph of Dysdercus koenigii assessed as deformed legs at 20 and 50 ug/nymph; assay type: functional
[15] = Toxicity in RBC assessed as induction of hemolysis at 1000 ug/ml; assay type: cell-based, Erythrocyte; conditions: red blood cells (RBC); read-out: Activity

| SMILES | LD50 (Dysdercus koenigii [1]) | MIC (Pyricularia grisea) | MIC (Fusarium oxysporum) | MIC (Drechslera) | MIC (Debaryomyces hansenii) | MIC [2] | GI (Candida albicans [3]) | GI (Candida albicans [4]) | GI (Candida albicans [5]) | GI (Nakaseomyces glabratus) | GI (Cryptococcus neoformans [6]) | GI (Cryptococcus neoformans [7]) | GI (Cryptococcus neoformans [8]) | GI (Cryptococcus neoformans [9]) | HC50 [10] | hemolysis [11] | Activity (Dysdercus koenigii [12]) | Activity (Dysdercus koenigii [13]) | Activity (Dysdercus koenigii [14]) | hemolysis at 1000 ug/ml [15] |
| --- | --- | --- | --- | --- | --- | --- | --- | --- | --- | --- | --- | --- | --- | --- | --- | --- | --- | --- | --- | --- |
| Cc1cc(NC(=S)NC(=O)c2ccccc2Cl)c(C(C)C)cc1O | 13 µg | > 512 µg/mL | > 512 µg/mL | > 512 µg/mL | > 512 µg/mL | 512 µg/mL (≈ 1410 µM) | 64 µg/mL | 64 µg/mL | >512 µg/mL | 64 µg/mL | 128 µg/mL | 32 µg/mL | 64 µg/mL | >512 µg/mL | > 1000 µg/mL | < 2% | – | – | – | – |
| Cc1cc(NC(=O)NC(=O)c2ccc(F)cc2)c(C(C)C)cc1O | 14.9 µg | > 512 µg/mL | > 512 µg/mL | > 512 µg/mL | > 512 µg/mL | > 512 µg/mL | >512 µg/mL | 16 µg/mL | 32 µg/mL | 16 µg/mL | >512 µg/mL | <4 µg/mL | 16 µg/mL | 16 µg/mL | > 1000 µg/mL | < 2% | – | – | – | – |
| Cc1cc(NC(=O)NC(=O)c2ccc(Cl)cc2)c(C(C)C)cc1O | 18 µg | 512 µg/mL (≈ 1480 µM) | 256 µg/mL (≈ 738 µM) | 128 µg/mL (≈ 369 µM) | 128 µg/mL (≈ 369 µM) | 256 µg/mL (≈ 738 µM) | 64 µg/mL | 32 µg/mL | >512 µg/mL | 32 µg/mL | 64 µg/mL | 32 µg/mL | 32 µg/mL | 32 µg/mL | > 1000 µg/mL | < 2% | – | – | – | – |
| Cc1cc(NC(=S)NC(=O)c2ccccc2)c(C(C)C)cc1O | 23.6 µg | > 512 µg/mL | > 512 µg/mL | > 512 µg/mL | > 512 µg/mL | 512 µg/mL (≈ 1560 µM) | 128 µg/mL | 32 µg/mL | >512 µg/mL | 32 µg/mL | 64 µg/mL | 16 µg/mL | 32 µg/mL | 128 µg/mL | > 1000 µg/mL | < 2% | – | – | – | – |
| Cc1cc(NC(=O)NC(=O)c2ccccc2)c(C(C)C)cc1O | 21.5 µg | > 512 µg/mL | > 512 µg/mL | > 512 µg/mL | > 512 µg/mL | > 512 µg/mL | 512 µg/mL | >512 µg/mL | >512 µg/mL | >512 µg/mL | >512 µg/mL | >512 µg/mL | 256 µg/mL | >512 µg/mL | > 1000 µg/mL | < 2% | – | – | – | – |
| C[C@@H]1[C@H](O)[C@@H](C)/C=C/C=C/C=C/C=C/C=C/C=C/C=C/[C@H](O[C@@H]2O[C@H](C)[C@@H](O)[C@H](N)[C@@H]2O)C[C@@H]2O[C@](O)(C[C@@H](O)C[C@@H](O)[C@H](O)CC[C@@H](O)C[C@@H](O)CC(=O)O[C@H]1C)C[C@H](O)[C@H]2C(=O)O [AMPHOTERICIN B] | – | – | – | – | – | – | – | – | – | – | – | – | – | – | 8 µg/mL | – | – | – | – | – |
| Cc1cc(NC(=S)NC(=O)c2ccccc2F)c(C(C)C)cc1O | 12.6 µg | 256 µg/mL (≈ 739 µM) | 128 µg/mL (≈ 369 µM) | > 512 µg/mL | 256 µg/mL (≈ 739 µM) | > 512 µg/mL | 128 µg/mL | 128 µg/mL | >512 µg/mL | 128 µg/mL | 32 µg/mL | 64 µg/mL | 128 µg/mL | 512 µg/mL | > 1000 µg/mL | < 2% | – | – | – | – |
| Cc1cc(NC(=O)NC(=O)c2c(F)cccc2F)c(C(C)C)cc1O | 9.5 µg | > 512 µg/mL | > 512 µg/mL | > 512 µg/mL | > 512 µg/mL | > 512 µg/mL | >512 µg/mL | 16 µg/mL | 32 µg/mL | 16 µg/mL | >512 µg/mL | <4 µg/mL | 16 µg/mL | 16 µg/mL | > 1000 µg/mL | < 2% | Active | Active | Active | – |
| Cc1cc(NC(=S)NC(=O)c2ccc(F)cc2)c(C(C)C)cc1O | 12.6 µg | 256 µg/mL (≈ 739 µM) | 128 µg/mL (≈ 369 µM) | 256 µg/mL (≈ 739 µM) | 256 µg/mL (≈ 739 µM) | 512 µg/mL (≈ 1480 µM) | 64 µg/mL | 64 µg/mL | >512 µg/mL | 64 µg/mL | 16 µg/mL | 32 µg/mL | 64 µg/mL | 128 µg/mL | > 1000 µg/mL | – | – | – | – | 17% |
| Cc1cc(NC(=O)NC(=O)c2ccccc2F)c(C(C)C)cc1O | 12.5 µg | > 512 µg/mL | > 512 µg/mL | > 512 µg/mL | > 512 µg/mL | > 512 µg/mL | >512 µg/mL | 16 µg/mL | 32 µg/mL | 16 µg/mL | >512 µg/mL | <4 µg/mL | 16 µg/mL | 16 µg/mL | > 1000 µg/mL | < 2% | – | – | – | – |
| Cc1ccc(C(C)C)cc1O [CARVACROL] | 33.3 µg | 128 µg/mL (≈ 852 µM) | 64 µg/mL (≈ 426 µM) | 64 µg/mL (≈ 426 µM) | 128 µg/mL (≈ 852 µM) | 128 µg/mL (≈ 852 µM) | 128 µg/mL | 128 µg/mL | 256 µg/mL | 128 µg/mL | 128 µg/mL | 128 µg/mL | 128 µg/mL | 128 µg/mL | 250 µg/mL | – | – | – | – | – |
| Cc1cc(NC(=S)NC(=O)c2c(F)cccc2F)c(C(C)C)cc1O | 11.3 µg | > 512 µg/mL | > 512 µg/mL | 256 µg/mL (≈ 702 µM) | 128 µg/mL (≈ 351 µM) | > 512 µg/mL | 256 µg/mL | 64 µg/mL | >512 µg/mL | 64 µg/mL | 512 µg/mL | 32 µg/mL | 64 µg/mL | 128 µg/mL | > 1000 µg/mL | < 2% | – | – | – | – |
| O=C(NC(=O)c1c(F)cccc1F)Nc1cc(Cl)c(OC(F)(F)C(F)C(F)(F)F)cc1Cl (stereo unspecified) [LUFENURON] | 9 µg | > 512 µg/mL | > 512 µg/mL | > 512 µg/mL | > 512 µg/mL | > 512 µg/mL | >512 µg/mL | >512 µg/mL | >512 µg/mL | >512 µg/mL | >512 µg/mL | >512 µg/mL | >512 µg/mL | >512 µg/mL | > 1000 µg/mL | – | – | – | – | – |
| Cc1cc(NC(=O)NC(=O)c2ccccc2Cl)c(C(C)C)cc1O | 16.4 µg | > 512 µg/mL | 512 µg/mL (≈ 1480 µM) | 256 µg/mL (≈ 738 µM) | 128 µg/mL (≈ 369 µM) | 256 µg/mL (≈ 738 µM) | 128 µg/mL | 256 µg/mL | >512 µg/mL | >512 µg/mL | 256 µg/mL | 256 µg/mL | 128 µg/mL | 128 µg/mL | > 1000 µg/mL | < 2% | – | – | – | – |
| Cc1cc(NC(=S)NC(=O)c2ccc(Cl)cc2)c(C(C)C)cc1O | 20.8 µg | 256 µg/mL (≈ 705 µM) | 128 µg/mL (≈ 353 µM) | > 512 µg/mL | 256 µg/mL (≈ 705 µM) | 512 µg/mL (≈ 1410 µM) | 64 µg/mL | 16 µg/mL | 32 µg/mL | 32 µg/mL | 64 µg/mL | 8 µg/mL | 32 µg/mL | 32 µg/mL | > 1000 µg/mL | < 2% | – | – | – | – |

Reference: ChEMBL document CHEMBL2069221, “Hybrid molecules of carvacrol and benzoyl urea/thiourea with potential applications in agriculture and medicine” (Bioorg Med Chem Lett, 2012)
